The text below walks through data of patent publication US10306895B2, “Plant defense signaling peptides and applications thereof” (Academia Sinica, priority 2014, dated 2019).

Ends that are not written are not given here.

The test system of series [1] is Pst DC3000. The conditions noted are these: seedlings treated with 50 mM NaCl for 24 hours, with or without 250 nM AtCAPE1 for 6 hours.
Method: 5 days Arabidopsis seedlings treated with 50 mM NaCl for 24 hours and following the treatment of with or without 250 nM AtCAPE1 for 6 hours. The infection symptoms were observed 4 days after Pst DC3000 inoculation. The bacterial numbers were calculated 7 days after inoculation and represented as log colony-forming units (Log CFU) per g leaf tissue. Data represent the means and SD of three biological samples.
Pst DC3000 or hrcC^− were grown in water- or peptide-treated plants for several days to observe the symptoms and then the bacteria were collected from the leaves and evaluated by bacterial titers according to a method outlined previously (Zimmerli et al., 2000).
Series [2] has as its system JA and JA-Ile accumulation. The series can be described thus: Jasmonate hormone quantitation by LC-MS/MS in excised tomato plants. The conditions noted are these: 365 nM peptide in buffer through the cut stem of excised plants, 2 and 4 hours. In kind it is in vivo, Solanum lycopersicum (tomato).
Method: The plants treated with 10 mM phosphate buffer (buffer), 365 nM systemin (Sys) or 365 nM CAPE1 in buffer through the cut stem for 2 and 4 hours (n=3). The quantity of JA and JA-Ile were quantified by LC-SRM-MS and calculated by the abundance of spiked standard H2JA. Data represent the means and SD of three independent biological replicates.
To compare the jasmonates induced by the peptides, the excised tomato plants were treated with 10 mM phosphate buffer, 365 nM systemin or 365 nM CAPE1 in buffer through the cut stem for 2 and 4 hours (Schaller et al., 1995; Howe et al., 1996).
After peptide treatment, the metabolites were extracted from leaf tissues for phytohormone quantitation. The extraction procedure was modified from a previously published protocol (Pan et al., 2010). The leaf tissues (about 0.6 g fresh weight) were ground into powder under liquid nitrogen and transferred to a 50 ml screw-cap tube. The frozen leaf powder was dissolved in 6 ml extraction solvent and d6-SA (3 ng to 0.6 g leaf tissue) and H2JA (15 ng to 0.6 g leaf tissue) were added as internal standards. The samples were extracted by shaking at a speed of 100 rpm at 4° C. for 30 minutes and then 12 ml dichloromethane was added to each sample and shaken at 100 rpm at 4° C. for 30 minutes. The samples were centrifuged at 13,000×g at 4° C. for 5 minutes, and two phases were formed. […]
In series [3] the test system is PR-1b and WRKY53 gene expression. The series can be described thus: qRT-PCR of defense genes in tomato leaves pretreated with cleavage motif peptide and challenged with Pst DC3000 hrcC-. The conditions noted are these: 1 μM CNYDPV pretreatment for 2 h, then Pst DC3000 hrcC- challenge for 2 h. Type of series: in vivo. As for the experimental part: Relative expression levels of PR-1b and WRKY53 were analyzed by qRT-PCR 2 h after challenge of 10^7 cfu/mL Pst DC3000 hrcC^− or buffer in tomato leaves, which was pretreated with water, 100 nM CAPE1 or 1 μM CNYDPV for 2 h, respectively.
Quantitative real-time PCR (qRT-PCR) was used to validate the expression of some specific genes. Three biological replicates were used for qRT-PCR analyses. The qRT-PCR was performed using SYBR Green reagent and ABI 7500 Real Time PCR systems (Foster City, Calif.). The PCR cycling steps were 50° C. for 2 min and 94° C. for 10 min for initial steps and followed by 95° C. for 15 s and 60° C. for 1 min for 40 cycles. The gene expressions across different samples were normalized with internal control EF-1α or Ubi3. The melting curve was used to verify the specificity of the PCR product.
Background: In qPCR the cycle at which signal appears reflects the starting amount.

In series [4] the test system is Pst DC3000. The series can be described thus: Pathogen challenge of presprayed Arabidopsis plants. Type of series: in vivo, Pseudomonas syringae pv. tomato. Conditions: plants sprayed with 100 nM peptide for 2 hours prior to inoculation.
Method: The infection symptoms were observed 4 days after inoculation. The bacterial numbers were calculated 4 days after inoculation and are represented as log colony-forming units (Log CFU) per g leaf tissue. Data represent the means and SD of three biological samples.
To test the anti-pathogen activity induced by peptides in Arabidopsis, the plants were sprayed with 100 nM AtCAPE1, AtCAPE9, 100 nM flg22 or water, respectively, for 2 hours prior to pathogen challenge.
The bacterial pathogen Pseudomonas syringae pv. tomato DC3000 (Pst DC3000) or Pst DC3000 hrcC^− were grown on King's B (KB) agar medium containing 100 mg/L rifampicin for 2 days at 28° C. Before the challenge, the bacteria were cultured in KB liquid medium at 28° C. with 230 rpm shaking overnight. The bacteria were pelleted by centrifugation and resuspended in 10 mM MgSO4 at A600=0.25 (about 10^8 cfu/ml).
In series [5] the test system is Pseudomonas syringae pv. tomato DC3000 (Pst DC3000). In kind it is in vivo. On the procedure:
(a) Changes of the larval sizes after feeding with water or 250 nM CAPE1 treated tomato leaves. The larval weights of thirty larvae were recorded each day. (b) The Pst DC3000 infection phenotypes of the plants presprayed with water or 100 nM CAPE1 peptide for 2 hours (n=3) prior to pathogen inoculation. […] All statistically significant differences between the CAPE1- and water-treated samples are indicated with * (P<0.05) or *** (P<0.001) based on Student's t-test.
(§1) (a) The level of SA induced by CAPE1 and flg22. The excised plants were pretreated with 10 mM phosphate buffer (buffer) or 365 nM CAPE1 or 365 nM flg22 in buffer through the cut stem for 8 hours (n=3). The quantity of SA was quantified by LC-SRM-MS and calculated based on the abundance of spiked SA isotopic standard (d6-SA). (b) The relative expression of WRKY53 and PR-1b were quantified by comparing the expression levels in untreated detached leaves with the detached leaves treated with water, 250 nM CAPE1 or 250 nM flg22 for 2 hours (n=4). The internal control Ubi3 was used for normalization. (c) The Pst DC3000 infection phenotypes for plants presprayed with water, 100 nM CAPE1 or 100 nM flg22 peptide for 2 hours (n=3) prior to the pathogen inoculation. The infection symptoms were observed 4 days after inoculation. […]

For series [6], the system named is WRKY53 and PR-1b gene expression. The series can be described thus: qRT-PCR of WRKY53 and PR-1b in detached tomato leaves. The conditions noted are these: 250 nM peptide, 2 hours. Type of series: in vivo, Solanum lycopersicum (tomato). As for the experimental part: (a) The level of SA induced by CAPE1 and flg22. The excised plants were pretreated with 10 mM phosphate buffer (buffer) or 365 nM CAPE1 or 365 nM flg22 in buffer through the cut stem for 8 hours (n=3). The quantity of SA was quantified by LC-SRM-MS and calculated based on the abundance of spiked SA isotopic standard (d6-SA). (b) The relative expression of WRKY53 and PR-1b were quantified by comparing the expression levels in untreated detached leaves with the detached leaves treated with water, 250 nM CAPE1 or 250 nM flg22 for 2 hours (n=4). The internal control Ubi3 was used for normalization. (c) The Pst DC3000 infection phenotypes for plants presprayed with water, 100 nM CAPE1 or 100 nM flg22 peptide for 2 hours (n=3) prior to the pathogen inoculation. The infection symptoms were observed 4 days after inoculation. […] A statistically significant difference compared with the correspondingly treated water (or buffer) samples is indicated with ** (P<0.01) or *** (P<0.001) based on Student's t-test.
Quantitative real-time PCR (qRT-PCR) was used to validate the expression of some specific genes. Three biological replicates were used for qRT-PCR analyses. The qRT-PCR was performed using SYBR Green reagent and ABI 7500 Real Time PCR systems (Foster City, Calif.). […]

For a further series, the system named is SA accumulation. The series can be described thus: Salicylic acid quantitation by LC-MS/MS in excised tomato plants. In kind it is in vivo, Solanum lycopersicum (tomato). Conditions: 365 nM peptide supplied to excised plants through cut stem, 8 hours. On the procedure: as §1, with “normalization.” for “normalization. (c) The Pst DC3000 infection phenotypes for plants presprayed with water, 100 nM CAPE1 or 100 nM flg22 peptide for 2 hours (n=3) prior to the pathogen inoculation. The infection symptoms were observed 4 days after inoculation.”
After peptide treatment, the metabolites were extracted from leaf tissues for phytohormone quantitation. […] The dried samples were dissolved in 300 μl methanol, mixed well and centrifuged at 10,000×g at 4° C. for 5 minutes and then the supernatant was transferred to the sample vial for targeted quantitation analysis using LC-MS/MS.
For phytohormone quantitation, a linear ion trap-orbitrap mass spectrometer (Orbitrap Elite, Thermo Fisher Scientific, Bremen, Germany) coupled online with a UHPLC system (ACQUITY UPLC, Waters, Millford, Mass.) was used. […] The fragmentation reactions of m/z 137.02 to 93.03 for SA, 209.12 to 59.01 for JA, 322.20 to 130.09 for JA-Ile, 141.05 to 97.06 for d6-SA and 211.13 to 59.01 for H2JA were selected for quantitation. […]

Series [7] has as its system WRKY53, PR-1b, Adi3 and ERF5 gene expression. The conditions noted are these: 30 minute or 6 hours treatment of flg22 on tomato; cited from earlier work.

On to `[Cl-].[Na+]` [salt, NaCl], for which, in the series with Pst DC3000 [1], the “anti-pathogen activity in Arabidopsis after salt treatment” value is on record as “enhance the anti-pathogen activity”.
As to AVQSKPPSKRDPPKMQTD [systemin], the “induction of JA and JA-Ile” value in series [2] is “significantly induced by treatment for 2 hours”.
On to CNYDPV, for which, in series [3], the “defense gene expression (PR-1b and WRKY53) in tomato” value was “decreased”.
As for “PAGNYIGARPY (listed as Arabidopsis thaliana) [AtCAPE1]”, the “immunity against Pst DC3000 infection in Arabidopsis” value in the series on Pst DC3000 [4] is on record as “increase immunity against Pst DC3000 infection”.
Same read-out and setting: the result for “PRGNYVNEKPY (listed as Arabidopsis thaliana) [AtCAPE9]” reads “increase immunity against Pst DC3000 infection”.
Take PVGNWIGQRPY [CAPE1, PVGNWIGQRPY]: the “induction of the hypersensitive response (HR)” value in series [5] (in vivo) is listed as “without induction of the HR”.
As to QRLSTGSRINSAKDDAAGLQIA [flg22], the WRKY53 expression entry in series [6] is given as “highly induced”. For the same compound, the “induction of SA” value in the series on SA accumulation is recorded as “significantly induced SA”. For the same compound, the “plant resistance to Pst DC3000 infection in tomato” value in series [5] (plants sprayed with 100 nM peptide for 2 hours prior to inoculation) is listed as “resulted in plant resistance to Pst DC3000 infection”. Besides, in series [7], the “PR-1b, Adi3 and ERF5 induction (public RNA-seq data)” value was “could not be significantly induced”; the “WRKY53 induction (public RNA-seq data)” value is “could be induced”.
